Experimental findings from patent publication US11661404B2, “Prodrug compounds activated by AKR1C3 and their use for treating hyperproliferative disorders” (priority 2018, dated 2023) are described below.

Like-named read-outs stand apart in the source and are kept apart here.

For test [1], the system named is SNU398 hepatocellular carcinoma cells engineered to over-express AKR1C3. Nature of the test: Anti-proliferative IC50 assay, SNU398 over-expressing AKR1C3. Type of test: cell-based, human. To be noted: for IC50: Homo sapiens. As for the experimental part:
(§1) Four hundred cells were seeded in a volume of 100 μL in each well of a 96-well plate. The cells were left in a humidified incubator (37° C., 5% CO2) for 2 hours in order to enable attachment to the surface of the wells prior to compound addition. All compounds were prepared as stocks in DMSO and stored at −80° C. Frozen stocks of compounds were thawed immediately prior to addition to cells. Working solutions of each compound were made in α-MEM+5% FBS (v/v) at 3 times the required final concentration for the top well. The final concentration of DMSO in the α-MEM solution was ensured to not exceed 1% of the total volume. 50 μL of the working solution was added to the top wells (in duplicates) and gently mixed. The solubility of some compounds precluded the working solution in α-MEM to be 3 times the desired top well concentration. […] A 3-fold serial dilution was carried out along the plate starting from the top well. The first column of wells on the plate served as blanks (containing α-MEM+FBS) and the second column served as control wells (containing cells with no compound added). Following compound addition, the plates were incubated for 4 hours in a humidified incubator (37° C., 5% CO2).
(§2) Following the 4 hour compound exposure, the 96-well plates were washed three times by aspirating media with an Immuno Washer (Nunc) and each well replaced with 150 μL of α-MEM+5% (v/v) FBS+1% (v/v) P/S. The plates were left in a humidified incubator (37° C., 5% CO2) for 5 days to enable cell growth. The cells in 96-well plates were fixed 5 days after compound exposure by adding 50 μL of a 40% (w/v) trichloroacetic acid (TCA) solution so as to obtain a final TCA concentration of 10% in each well. The plates were left in the refrigerator (4° C.) for 1 hour and subsequently rinsed 3 times in tap water. Any excess water was left to drain and the cells were stained with 50 μL of 0.4% (w/v) sulforhodamine B (SRB). The plates with the SRB stain were left in the dark for 30 minutes. Excess stain was removed from the wells by rinsing the plates 4 times in water containing 1% (v/v) acetic acid. The stain was solubilised by adding 100 μL of 10 mM unbuffered Tris (pH 10.5) to each well and the plates were left in a shaker in a dark environment at room temperature for at least 1 hour. The absorbance values of the wells were determined by an ELx 808 Absorbance Microplate Reader (Bio-Tek Instruments, Winooski, Vt., USA), with the wavelength of the measurement filter set at 490 nm and a reference filter set at 450 nm. The absorbance of the reference filter was subtracted from the measurement filter to obtain a final absorbance of λ490-450 nm. The absorbance data was analysed and IC50 values determined by the KC4 microplate data analysis software (KC4™ V3.4, Bio-Tek).
(§3) Anti-proliferative IC50 assays were repeated as described above including the addition of 3 μM SN34037, a selective and potent small molecule inhibitor of AKR1C3.
(§4) Materials and methods used are as described for Example 9. […] This is a surprising finding and considerably greater than the approximately 77-fold, 270-fold and 400-fold increase in sensitivity observed for PR-104A, SN33540 and SN34454, respectively. In all cases, this increase in cytotoxicity resulting from expression of AKR1C3 can be substantially reversed by addition of an AKR1C3 inhibitor (SN34037), directly implicating metabolism of the prodrugs by AKR1C3 in the observed increase in cytotoxicity. As an important control, introduction of SN34037 had no anti-proliferative effects in wild-type SNU398 cells treated with compounds of the invention.

Test [2] relates to wild-type SNU398 hepatocellular carcinoma cells. As to the kind of experiment: Anti-proliferative IC50 assay, wild-type SNU398. The class given is cell-based. To be noted: Homo sapiens. As for the experimental part: as §1, §2, §3, §4
The mark [3] stands for this setting: SNU-398, read-out: SNU398-AKR1C3 +AKR1C3 Inhibitor Anti-proliferative IC50.
The mark [4] stands for this setting: SNU-398, read-out: SNU398-AKR1C3 Anti-proliferative IC50.
The mark [5] stands for this setting: SNU-398, read-out: SNU398-WT +AKR1C3 Inhibitor Anti-proliferative IC50.
[6] abbreviates: SNU-398, read-out: SNU398-WT Anti-proliferative IC50.

Take `CN1CCN(S(=O)(=O)c2cc([N+](=O)[O-])ccc2N(CCBr)CCOS(C)(=O)=O)CC1` [Compound 602, 2-((2-bromoethyl)(2-((4-methylpiperazin-1-yl)sulfonyl)-4-nitrophenyl)amino)ethyl methanesulfonate]: the IC50 (in general, the concentration that gives 50% inhibition) came to 2.66 µM in test [1] (setting [3]), 0.003 µM in test [1] (setting [4]), 6.65 µM in test [2] (setting [5]) and 6.74 µM in test [2] (setting [6]).

Turning to `CS(=O)(=O)OCCN(CCBr)c1c(C(=O)NCCO)cc([N+](=O)[O-])cc1[N+](=O)[O-]` [PR-104A, 2-((2-bromoethyl)(2-((2-hydroxyethyl)-carbamoyl)-4,6-dinitrophenyl)amino)ethyl methanesulfonate, reference compound], the IC50 in test [1] (setting [3]) turned out to be 89.9 µM; in test [1] (setting [4]), 1.16 µM; in test [2] (setting [5]), 92.4 µM; in test [2] (setting [6]) it was 89.8 µM.

As for `O=[N+]([O-])c1ccc(N(CCBr)CCBr)c(S(=O)(=O)N2CCN(CC(O)CO)CC2)c1` (stereo not shown) [Compound 566, 3-(4-((2-(bis(2-bromoethyl)amino)-5-nitrophenyl)sulfonyl)piperazin-1-yl)propane-1,2-diol], the IC50 in test [1] (setting [3]) was 6.41 µM; in test [1] (setting [4]), 0.011 µM; in test [2] (setting [5]) it was 10.2 µM; in test [2] (setting [6]), 9.64 µM.

For `CS(=O)(=O)OCCN(CCBr)c1ccc([N+](=O)[O-])cc1S(=O)(=O)N1CCN(CC(O)CO)CC1` (stereo not shown) [Compound 605, 2-((2-bromoethyl)(2-((4-(2,3-dihydroxypropyl)piperazin-1-yl)sulfonyl)-4-nitrophenyl)amino)ethyl methanesulfonate], the IC50 is 10.5 µM in test [1] (setting [3]), 0.028 µM in test [1] (setting [4]), 14.4 µM in test [2] (setting [5]) and 16.2 µM in test [2] (setting [6]).

With `CN1CCN(C(=O)c2cc([N+](=O)[O-])ccc2N(CCBr)CCOS(C)(=O)=O)CC1` [SN34454, reference compound], the IC50 in test [1] (setting [3]) stood at 62.7 µM; in test [1] (setting [4]), 0.15 µM; in test [2] (setting [5]), 48.9 µM; in test [2] (setting [6]), 60.5 µM. The “increase in sensitivity when SNU398 cells express AKR1C3” value in test [1] (SNU398-WT vs SNU398-AKR1C3) was around 400 fold.

Consider `CN1CCN(S(=O)(=O)c2cc([N+](=O)[O-])ccc2N(CCOS(C)(=O)=O)CCOS(C)(=O)=O)CC1` [Compound 641, ((2-((4-methylpiperazin-1-yl)sulfonyl)-4-nitrophenyl)azanediyl)bis(ethane-2,1-diyl) dimethanesulfonate], for which the IC50 amounted to 5.07 µM in test [1] (setting [3]), 0.004 µM in test [1] (setting [4]), 15.4 µM in test [2] (setting [5]) and 10.3 µM in test [2] (setting [6]).
